Reference: US8865756B2, “Inhibitors of HCV NS5A” (Presidio Pharmaceuticals, Inc., priority 2008, dated 2014)

System: HCV 1b_Huh-Luc/Neo-ET cell line persistently expressing a bicistronic genotype 1b replicon in Huh 7 cells
Assay: HCV replicon assay (luciferase readout)
Type: cell-based
Conditions: Hepatitis C virus, Huh-7, 72 h, read-out: Inhibition of HCV genotype 1b
Method in brief: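 EC50, determined repeatedly, comes from a four-parameter logistic fit of luciferase signal as percent of untreated control. Readout follows 72 h compound exposure, in triplicate, of the HCV 1b_Huh-Luc/Neo-ET replicon line.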

| Structure (SMILES) | EC50 |
| --- | --- |
| COC(=O)N[C@H](C(=O)N[C@@H](C)c1ncc(-c2ccc(C#Cc3ccc(-c4cnc([C@@H]5CCCN5C(=O)[C@@H](NC(=O)OC)C(C)C)[nH]4)cc3)cc2)[nH]1)C(C)C [Compound 275] | < 1 nM |
| COC(=O)N[C@H](C(=O)N[C@H](c1ncc(-c2ccc(C#Cc3ccc(-c4cnc([C@@H]5CCCN5C(=O)[C@@H](NC(=O)OC)C(C)C)[nH]4)cc3)cc2)[nH]1)C(C)C)C(C)C [Compound 276] | 1 to 9.9 nM |
| COC(=O)N[C@@H](C(=O)N1CCC[C@H]1c1ncc(-c2ccc(C#Cc3ccc(-c4cnc([C@@H]5CCCN5C(=O)[C@H](NC(=O)C5(O)CC5)c5ccccc5)[nH]4)cc3)cc2)[nH]1)c1ccccc1 [Compound 277] | < 1 nM |
| C[C@@H](c1ncc(-c2ccc(C#Cc3ccc(-c4cnc([C@@H]5CCCN5C(=O)[C@H](NC(=O)C5CC5)c5ccccc5)[nH]4)cc3)cc2)[nH]1)N(C)C(=O)[C@H](NC(=O)C1CC1)c1ccccc1 [Compound 278] | < 1 nM |
| COC(=O)N[C@@H](C(=O)N[C@@H](C)c1ncc(-c2ccc(C#Cc3ccc(-c4cnc([C@@H]5CCCN5C(=O)[C@H](NC(=O)OC)c5ccccc5)[nH]4)cc3)cc2)[nH]1)c1ccccc1 [Compound 279] | < 1 nM |
| C[C@H](NC(=O)[C@H](NC(=O)OC(C)(C)C)c1ccccc1)c1ncc(-c2ccc(C#Cc3ccc(-c4cnc([C@@H]5CCCN5C(=O)[C@H](NC(=O)OC(C)(C)C)c5ccccc5)[nH]4)cc3)cc2)[nH]1 [Compound 280] | < 1 nM |
| CC(C)[C@H](NC(=O)[C@H](NC(=O)OC(C)(C)C)c1ccccc1)c1ncc(-c2ccc(C#Cc3ccc(-c4cnc([C@@H]5CCCN5C(=O)[C@H](NC(=O)OC(C)(C)C)c5ccccc5)[nH]4)cc3)cc2)[nH]1 [Compound 281] | 1 to 9.9 nM |
| COC(=O)N[C@@H](C(=O)N[C@H](c1ncc(-c2ccc(C#Cc3ccc(-c4cnc([C@@H]5CCCN5C(=O)[C@H](NC(=O)OC)c5ccccc5)[nH]4)cc3)cc2)[nH]1)C(C)C)c1ccccc1 [Compound 282] | < 1 nM |
| COC(=O)N[C@H](C(=O)N1CCC[C@H]1c1ncc(-c2ccc(C#Cc3ccc(-c4cnc([C@@H]5CCCN5C(=O)[C@@H](NC(=O)OC)[C@@H](C)O)[nH]4)cc3)cc2)[nH]1)[C@@H](C)O [Compound 283] | < 1 nM |
| COC(=O)N[C@H](C(=O)N1CCC[C@H]1c1ncc(-c2ccc(C#Cc3ccc(-c4cnc([C@@H]5CCCN5C(=O)[C@@H](NC(=O)OC)[C@@H](C)OC)[nH]4)cc3)cc2)[nH]1)[C@@H](C)OC [Compound 284] | < 1 nM |
| CC(C)[C@H](NC(=O)N1CCOCC1)C(=O)N1CCC[C@H]1c1ncc(-c2ccc(C#Cc3ccc(-c4cnc([C@@H]5CCCN5C(=O)[C@@H](NC(=O)N5CCOCC5)C(C)C)[nH]4)cc3)cc2)[nH]1 [Compound 285] | > 1000 nM |
| CC(C)[C@H](NC(=O)N1CCC(O)CC1)C(=O)N1CCC[C@H]1c1ncc(-c2ccc(C#Cc3ccc(-c4cnc([C@@H]5CCCN5C(=O)[C@@H](NC(=O)N5CCC(O)CC5)C(C)C)[nH]4)cc3)cc2)[nH]1 [Compound 286] | > 1000 nM |
| CC(C)[C@H](NC(=O)N1CCN(C)CC1)C(=O)N1CCC[C@H]1c1ncc(-c2ccc(C#Cc3ccc(-c4cnc([C@@H]5CCCN5C(=O)[C@@H](NC(=O)N5CCN(C)CC5)C(C)C)[nH]4)cc3)cc2)[nH]1 [Compound 287] | > 1000 nM |
| CC(C)[C@H](NC(=O)N1CCCC1)C(=O)N1CCC[C@H]1c1ncc(-c2ccc(C#Cc3ccc(-c4cnc([C@@H]5CCCN5C(=O)[C@@H](NC(=O)N5CCCC5)C(C)C)[nH]4)cc3)cc2)[nH]1 [Compound 288] | > 1000 nM |
| COC(=O)N[C@H](C(=O)N1CCC[C@H]1c1ncc(-c2ccc(C#Cc3ccc(-c4cnc([C@H](C)NC(=O)[C@@H](NC(=O)OC)[C@@H](C)OC)[nH]4)cc3)cc2)[nH]1)C(C)OC (stereo partly drawn) [Compound 289] | < 1 nM |
| COC(=O)N[C@@H](C(=O)N[C@@H](C)c1ncc(-c2ccc(C#Cc3ccc(-c4cnc([C@@H]5CCCN5C(=O)[C@H](NC(=O)OC)C(C)C)[nH]4)cc3)cc2)[nH]1)C(C)C [Compound 290] | > 1000 nM |
| COC(=O)N[C@H](C(=O)N[C@@H](C)c1ncc(-c2ccc(C#Cc3ccc(-c4cnc([C@@H]5CCCN5C(=O)[C@@H](NC(=O)OC)[C@@H](C)O)[nH]4)cc3)cc2)[nH]1)[C@@H](C)O [Compound 291] | < 1 nM |
| COC(=O)N[C@@H](C(=O)N1CCC[C@H]1c1ncc(-c2ccc(C#Cc3ccc(-c4cnc([C@@H]5CCCN5C(=O)[C@H](NC(=O)OC)C(C)C)[nH]4)cc3)cc2)[nH]1)C(C)C [Compound 292] | > 1000 nM |
| CC(C)[C@@H](NC(=O)N1CCCC1)C(=O)N1CCC[C@H]1c1ncc(-c2ccc(C#Cc3ccc(-c4cnc([C@@H]5CCCN5C(=O)[C@H](NC(=O)N5CCCC5)C(C)C)[nH]4)cc3)cc2)[nH]1 [Compound 293] | > 1000 nM |
| CC(C)(C)OC(=O)N[C@@H](C(=O)N1CCC[C@H]1c1ncc(C#Cc2ccc(C#Cc3cnc([C@@H]4CCCN4C(=O)[C@H](NC(=O)OC(C)(C)C)c4ccccc4)[nH]3)cc2)[nH]1)c1ccccc1 [Compound 300] | < 1 nM |
| CC(C)[C@@H](NC(=O)OC(C)(C)C)C(=O)N1CCC[C@H]1c1ncc(C#Cc2ccc(C#Cc3cnc([C@@H]4CCCN4C(=O)[C@H](NC(=O)OC(C)(C)C)C(C)C)[nH]3)cc2)[nH]1 [Compound 301] | > 1000 nM |

| Structure (SMILES) | EC50 |
| --- | --- |
| CC(C)[C@@H](NC(=O)C1CC1)C(=O)N1CCC[C@H]1c1ncc(C#Cc2ccc(C#Cc3cnc([C@@H]4CCCN4C(=O)[C@H](NC(=O)C4CC4)C(C)C)[nH]3)cc2)[nH]1 [Compound 302] | > 1000 nM |
| O=C(N[C@@H](C(=O)N1CCC[C@H]1c1ncc(C#Cc2ccc(C#Cc3cnc([C@@H]4CCCN4C(=O)[C@H](NC(=O)C4CC4)c4ccccc4)[nH]3)cc2)[nH]1)c1ccccc1)C1CC1 [Compound 303] | < 1 nM |
| COC(=O)N[C@@H](C(=O)N1CCC[C@H]1c1ncc(C#Cc2ccc(C#Cc3cnc([C@@H]4CCCN4C(=O)[C@H](NC(=O)OC)c4ccccc4)[nH]3)cc2)[nH]1)c1ccccc1 [Compound 304] | < 1 nM |
| CN(C)[C@@H](C(=O)N1CCC[C@H]1c1ncc(C#Cc2ccc(C#Cc3cnc([C@@H]4CCCN4C(=O)[C@@H](c4ccccc4)N(C)C)[nH]3)cc2)[nH]1)c1ccccc1 [Compound 305] | < 1 nM |
| CC(=O)N[C@@H](C(=O)N1CCC[C@H]1c1ncc(C#Cc2ccc(C#Cc3cnc([C@@H]4CCCN4C(=O)[C@H](NC(C)=O)c4ccccc4)[nH]3)cc2)[nH]1)c1ccccc1 [Compound 306] | < 1 nM |
| CNC(=O)N[C@@H](C(=O)N1CCC[C@H]1c1ncc(C#Cc2ccc(C#Cc3cnc([C@@H]4CCCN4C(=O)[C@H](NC(=O)NC)c4ccccc4)[nH]3)cc2)[nH]1)c1ccccc1 [Compound 307] | < 1 nM |
| CN(C)C(=O)N[C@@H](C(=O)N1CCC[C@H]1c1ncc(C#Cc2ccc(C#Cc3cnc([C@@H]4CCCN4C(=O)[C@H](NC(=O)N(C)C)c4ccccc4)[nH]3)cc2)[nH]1)c1ccccc1 [Compound 308] | < 1 nM |
| O=C(N[C@@H](C(=O)N1CCC[C@H]1c1ncc(C#Cc2ccc(C#Cc3cnc([C@@H]4CCCN4C(=O)[C@H](NC(=O)N4CCOCC4)c4ccccc4)[nH]3)cc2)[nH]1)c1ccccc1)N1CCOCC1 [Compound 309] | < 1 nM |
| CN1CCN(C(=O)N[C@@H](C(=O)N2CCC[C@H]2c2ncc(C#Cc3ccc(C#Cc4cnc([C@@H]5CCCN5C(=O)[C@H](NC(=O)N5CCN(C)CC5)c5ccccc5)[nH]4)cc3)[nH]2)c2ccccc2)CC1 [Compound 310] | 1 to 9.9 nM |
| COC(=O)N[C@@H](C(=O)N1CCC[C@H]1c1ncc(C#Cc2ccc(C#Cc3cnc([C@@H]4CCCN4C(=O)[C@@H](c4ccccc4)N4CCCC4)[nH]3)cc2)[nH]1)c1ccccc1 [Compound 311] | < 1 nM |
| COC(=O)N[C@@H](C(=O)N1CCC[C@H]1c1ncc(C#Cc2ccc(C#Cc3cnc([C@@H]4CCCN4C(=O)[C@@H](c4ccccc4)N4CCCCC4)[nH]3)cc2)[nH]1)c1ccccc1 [Compound 312] | < 1 nM |
| COC(=O)N[C@@H](C(=O)N1CCC[C@H]1c1ncc(C#Cc2ccc(C#Cc3cnc([C@@H]4CCCN4C(=O)[C@@H](c4ccccc4)N4CCOCC4)[nH]3)cc2)[nH]1)c1ccccc1 [Compound 313] | < 1 nM |
| COC(=O)N[C@@H](C(=O)N1CCC[C@H]1c1ncc(C#Cc2ccc(C#Cc3cnc([C@@H]4CCCN4C(=O)[C@@H](c4ccccc4)N(C)C)[nH]3)cc2)[nH]1)c1ccccc1 [Compound 314] | < 1 nM |
| CCN(CC)[C@@H](C(=O)N1CCC[C@H]1c1ncc(C#Cc2ccc(C#Cc3cnc([C@@H]4CCCN4C(=O)[C@H](NC(=O)OC)c4ccccc4)[nH]3)cc2)[nH]1)c1ccccc1 [Compound 315] | < 1 nM |
| COC(=O)N[C@@H](C(=O)N1CCC[C@H]1c1ncc(C#Cc2ccc3nc([C@@H]4CCCN4C(=O)[C@H](NC(=O)OC)c4ccccc4)[nH]c3c2)[nH]1)c1ccccc1 [Compound 700] | < 1 nM |
| COC(=O)N[C@@H](C(=O)N1CCC[C@H]1c1ncc(C#Cc2ccc(-c3ccc(-c4cnc([C@@H]5CCCN5C(=O)[C@H](NC(=O)OC)c5ccccc5)[nH]4)cc3)cc2)[nH]1)c1ccccc1 [Compound 750] | < 1 nM |
| CCN(CC)[C@@H](C(=O)N1CCC[C@H]1c1ncc(-c2ccc(-c3ccc(C#Cc4cnc([C@@H]5CCCN5C(=O)[C@H](NC(=O)OC)c5ccccc5)[nH]4)cc3)cc2)[nH]1)c1ccccc1 [Compound 751] | < 1 nM |
| COC(=O)N[C@@H](C(=O)N1CCC[C@H]1c1ncc(C#Cc2ccc(-c3ccc(-c4cnc([C@@H]5CCCN5C(=O)[C@@H](c5ccccc5)N5CCCCC5)[nH]4)cc3)cc2)[nH]1)c1ccccc1 [Compound 752] | < 1 nM |
| COC(=O)N[C@@H](C(=O)N1CCC[C@H]1c1ncc(C#Cc2ccc(-c3ccc(-c4cnc([C@@H]5CCCN5C(=O)[C@H](NC(=O)OC(C)(C)C)c5ccccc5)[nH]4)cc3)cc2)[nH]1)c1ccccc1 [Compound 753] | < 1 nM |
| COC(=O)N[C@@H](C(=O)N1CCC[C@H]1c1ncc(C#Cc2ccc(-c3ccc(-c4cnc([C@@H]5CCCN5C(=O)[C@H](NC(=O)C5CC5)c5ccccc5)[nH]4)cc3)cc2)[nH]1)c1ccccc1 [Compound 754] | < 1 nM |
| COC(=O)N[C@@H](C(=O)N1CCC[C@H]1c1ncc(C#Cc2ccc(-c3ccc(-c4cnc([C@@H]5CCCN5C(=O)[C@@H](c5ccccc5)N(C)C)[nH]4)cc3)cc2)[nH]1)c1ccccc1 [Compound 755] | < 1 nM |
